Data: patent publication US20200038414A1, “METHODS OF TREATING CONSTIPATION USING AMINOSTEROL COMPOSITIONS” (Enterin, Inc., priority 2018, published 2020)
Several values for one entry are separate records, joined by “and”; a condition that tells them apart may be missing. Equal values may be shown once.

Assays:
[1] = system: PD patients with constipation; test: Phase 2 trial Stage 2: adverse events; assay type: in vivo, human
Description: (§1) In Stage 2, 34 patients were evaluated.

[2] = system: PD patients with constipation; test: Phase 2 trial, both Stages: adverse events in all dosed patients (n = 44); assay type: in vivo, human
Description: Adverse events were coded using the current version of MedDRA. Severity of AEs were assessed by investigators according to CTCAE (v4.03): Grade 1 is labeled as Mild, Grade 2 as Moderate, and Grade 3 and above as Severe. […] The number (percentage) of subjects who experienced an AE during escalation and fixed dosing periods were summarized by dose level and overall for each stage. The denominator for calculating the percentages were based on the number of subjects ever exposed to each dose and overall.

[3] = system: PD patients with constipation; test: Phase 2 trial Stage 2: bowel function under daily oral dosing (escalation, fixed dose, randomization, wash-out); assay type: in vivo, human; conditions: for CSBM/week: randomized cohort
Description: as §1
The primary efficacy outcome variable was whether or not a subject was a “success” or “failure”. This is an endpoint based on subject diary entries for the “fixed dose” period prior to the endpoint assessment defined as average complete stool frequency increase by 1 or more over baseline, or 3 or more complete spontaneous stools/week. The subject was deemed a “success” if s/he met one or more of the criteria listed above, otherwise the subject was deemed a “failure”. The primary analysis was based on all subjects with a baseline assessment and an assessment at the end of the “fixed-dose” period and was a comparison of the proportion of successes with 0.10 (the null hypothesis corresponding to no treatment effect).

C. elegans model of PD = C. elegans model of PD in vivo; cited from earlier work
αS = αS (Homo sapiens, UniProt P37840); conditions: in vitro; cited from earlier work
[4] = system: PD patients with constipation; test: Phase 2 trial Stage 2: CNS symptoms (UPDRS, MMSE, PDHQ, BDI-II); assay type: in vivo, human; conditions: for PDHQ (Mean): baseline 1.3 (2.99); for BDI-II (Mean): baseline 10.9 (7.12)
Description: (9) Unified Parkinson's Disease Rating Scale (UPDRS), which consists of 42 items in four subscales (Part I=Non-Motor Aspects of Experiences of Daily Living (nM-EDL) (1.1 cognitive impairment, 1.2 hallucinations and psychosis, 1.3 depressed mood; Part II=Motor Aspects of Experiences of Daily Living (M-EDL), Part III=Motor Examination, and Part IV=Motor Complications;
Assessments were made at baseline and at the end of the fixed dose and washout periods. Circadian system status was evaluated by continuously monitoring wrist skin temperature (Thermochron iButton DS1921H; Maxim, Dallas) following published procedures (Sarabia et al. 2008).
An exploratory analysis was done with respect to the sleep data, the body temperature data, mood, fatigue, hallucinations, cognition and other motor and non-motor symptoms of PD. Continuous measurements within a subject were compared with a paired t-test and continuous measurements between subject groups were compared with a two-group t-test. Categorical data were compared with a chi-squared test or a Fisher's exact test if the expected cell counts are too small for a chi-squared test.
CNS symptoms were evaluated at baseline and at the end of the fixed dose period and the wash-out period (Table 11). Total UPDRS score was 64.4 at baseline, 60.6 at the end of the fixed dose period and 55.7 at the end of the wash-out period (p=0.002); similarly, the motor component of the UPDRS improved from 35.3 at baseline to 33.3 at the end of fixed dose to 30.2 at the end of wash-out (p=0.006). MMSE improved from 28.4 at baseline to 28.7 during treatment and to 29.3 during wash-out (p=0.0006). […] PDHQ improved from 1.3 at baseline to […] during treatment and 0.9 during wash-out (p=0.03). Hallucinations were reported by 5 patients at baseline and delusions in 1 patient. […] Unlike stool-related indices, the improvement in many CNS symptoms persisted during wash-out.

[5] = system: PD patients with constipation; test: Phase 2 trial Stage 1: prokinetic response to single escalating oral doses; assay type: in vivo, human; conditions: Stage 1, single oral dose
Description: Tolerability limits included diarrhea or vomiting.

[6] = Stage 2, dosed 34, unrelated to ENT-01

CC(C)[C@@H](CC[C@@H](C)[C@H]1CC[C@H]2[C@@H]3[C@H](O)C[C@H]4C[C@@H](NCCCNCCCCN)CC[C@]4(C)[C@H]3CC[C@]12C)OS(=O)(=O)O (single isomer, unassigned) [squalamine (ENT-01)]
patients with diarrhea ([1]; Stage 2, 15/34): 44% | patients who withdrew during dosing because of diarrhea ([1]; Stage 2, 34 dosed): 2 | adverse event: Abdominal pain, Mild ([1]; Stage 2, dosed 34): 4 n | adverse event: Abdominal pain, Moderate ([1]; Stage 2, dosed 34): 2 n | adverse event: Diarrhea, Mild ([1]; Stage 2, dosed 34): 12 n | adverse event: Diarrhea, Moderate ([1]; Stage 2, dosed 34): 2 n | adverse event: Diarrhea, Severe ([1]; Stage 2, dosed 34): 1 n | adverse event: Difficulty falling asleep, Mild ([1]; Stage 2, dosed 34): 1 n | adverse event: Difficulty falling asleep, Moderate ([1]; Stage 2, dosed 34): 0 n | adverse event: Dizziness, Mild ([1]; Stage 2, dosed 34): 7 n | adverse event: Dizziness, Moderate ([1]; Stage 2, dosed 34): 1 n | adverse event: Eye infection, Mild ([1]; Stage 2, dosed 34): 1 n | adverse event: Eye infection, Moderate ([1]; Stage 2, dosed 34): 0 n | adverse event: Flatulence, Mild ([1]; Stage 2, dosed 34): 1 n | adverse event: Flatulence, Moderate ([1]; Stage 2, dosed 34): 0 n | adverse event: Headache, Mild ([1]; Stage 2, dosed 34): 3 n | adverse event: Headache, Moderate ([1]; Stage 2, dosed 34): 0 n | adverse event: Increased urinary frequency, Mild ([1]; Stage 2, dosed 34): 2 n | adverse event: Increased urinary frequency, Moderate ([1]; Stage 2, dosed 34): 0 n | adverse event: Nausea, Mild ([1]; Stage 2, dosed 34): 18 n | adverse event: Nausea, Moderate ([1]; Stage 2, dosed 34): 1 n | adverse event: Skin lesions-rash, Mild ([1]; Stage 2, dosed 34): 3 n | adverse event: Skin lesions-rash, Moderate ([1]; Stage 2, dosed 34): 0 n | adverse event: Urinary retention, Mild ([1]; Stage 2, dosed 34): 1 n | adverse event: Urinary retention, Moderate ([1]; Stage 2, dosed 34): 0 n | adverse event: Urinary tract infection, Mild ([1]; Stage 2, dosed 34): 1 n | adverse event: Urinary tract infection, Moderate ([1]; Stage 2, dosed 34): 2 n | adverse event: Vomiting, Mild ([1]; Stage 2, dosed 34): 2 n | adverse event: Vomiting, Moderate ([1]; Stage 2, dosed 34): 0 n | adverse event: Worsening acid reflux, Mild ([1]; Stage 2, dosed 34): 4 n | adverse event: Worsening acid reflux, Moderate ([1]; Stage 2, dosed 34): 0 n | adverse event: Worsening hemorrhoid, Mild ([1]; Stage 2, dosed 34): 1 n | adverse event: Worsening hemorrhoid, Moderate ([1]; Stage 2, dosed 34): 0 n | adverse event: Lower GI bleed, Severe ([1]; Stage 2, dosed 34, colonic diverticulosis, polyp, patient on aspirin, Plavix and naproxen, unrelated to ENT-01): 1 n | adverse event: Blood in urine, Mild [1, 6]: 0 n | adverse event: Blood in urine, Moderate [1, 6]: 0 n | adverse event: Loss of appetite, Mild [1, 6]: 0 n | adverse event: Loss of appetite, Moderate [1, 6]: 0 n | patients terminated prior to completion because of recurrent dizziness ([1]; Stage 2, two of 34 dosed): 5.8% | patients with worsening of hemorrhoids ([2]; 1/44): 2.2% | patients with worsening of acid reflux ([2]; 2/44): 4.5% | patients with flatulence ([2]; 3/44): 6.8% | patients with vomiting ([2]; 3/44): 6.8% | patients with dizziness ([2]; 8/44): 18% | patients with abdominal pain ([2]; 11/44): 32% | CSBM, weekly average (mean, SD) ([3]; Stage 2, fixed dose, n = 34, baseline 1.2 (0.90), P 2.3 × 10^−8): 3.8 /week and 3.8 (2.40) /week | Suppository use / rescue medication, weekly average (mean, SD) ([3]; Stage 2, fixed dose, n = 34, baseline 1.8 (1.92), P 1.33 × 10^−5): 0.3 /week and 0.3 (0.67) /week | SBM, weekly average (mean, SD) ([3]; Stage 2, fixed dose, n = 34, baseline 2.6 (1.45), P 6.4 × 10^−6): 4.5 /week and 4.5 (2.21) /week | Consistency (Mean, SD) ([3]; Stage 2, wash-out, Bristol stool scale, baseline 2.7 (1.20), P vs. baseline 0.85): 2.8 (1.39) | CSBM (Mean, SD) ([3]; Stage 2, wash-out, baseline 1.2 (0.90), P wash-out vs. baseline 0.01): 1.8 (1.19) /week | PAQ-SYM (Mean, SD) ([3]; Stage 2, wash-out, baseline 1.3 (0.45), P vs. baseline 0.11): 1.1 (0.60) | PAQ-QOL (Mean, SD) ([3]; Stage 2, wash-out, baseline 1.4 (0.49), P vs. baseline 0.04): 1.2 (0.63) | Rescue meds (Mean, SD) ([3]; Stage 2, wash-out, baseline 1.8 (1.92), P vs. baseline 0.13): 1.0 (1.40) /week | SBM (Mean, SD) ([3]; Stage 2, wash-out, baseline 2.6 (1.45), P vs. baseline 0.16): 3.2 (1.80) /week | Ease (Mean, SD) ([3]; Stage 2, wash-out, ease of evacuation scale, baseline 3.2 (0.73), P vs. baseline 0.78): 3.3 (0.81) | improvement of SBM/week ([3]; fixed dose vs baseline (2.6 to 4.5)): 73% | mean dose required for a prokinetic response ([3]; patients with baseline ≥1 CSBM/week, relation to baseline severity p=0.00055): 120 mg | CSBM/week ([3]; Treatment arm (n = 6), fixed dose period, baseline 0.8): 3.2 CSBM/week | CSBM/week ([3]; Treatment arm (n = 6), randomized period (4-6 days), baseline 0.8): 2.4 CSBM/week | CSBM/week ([3]; Treatment arm (n = 6), washout, baseline 0.8): 0.9 CSBM/week | CSBM/week ([3]; patients later given placebo (n = 9), fixed dose period on drug, baseline 1.6): 3.3 CSBM/week | effect on formation of aggregates of αS (C. elegans model of PD): inhibit the formation of aggregates of αS | effect on formation of aggregates of αS (αS): inhibit the formation of aggregates of αS | PDHQ (Mean) ([4]; Stage 2, fixed dose, n = 34, P 0.45): 1.8 | BDI-II (Mean) ([4]; Stage 2, fixed dose, n = 34, P 0.14): 9.9 | PDHQ (Mean) ([4]; Stage 2, wash-out, n = 34, P 0.03): 0.9 | BDI-II (Mean) ([4]; Stage 2, wash-out, n = 34, P 0.10): 8.7 | UPDRS Part 1 (NMS) (Mean) ([4]; Stage 2, wash-out, n = 34, baseline 11.6 (6.51), P 0.06): 9.5 | patients in whom hallucinations and delusions improved or disappeared ([4]; during treatment, hallucinations in 5 patients and delusions in 1 patient at baseline): 5 of 6 | cumulative prokinetic response rate (patients with a CSBM within 24 hours of dosing) ([5]; 25 mg): 25% | cumulative prokinetic response rate (patients with a CSBM within 24 hours of dosing) ([5]; 200 mg (maximum)): 80%
